Source: ChEMBL document CHEMBL1649156, “Antianaerobic activity of sulopenem compared to six other agents” (2009)

Tests used:
Format in all cases: functional
Parvimonas micra = assay: Antimicrobial activity in Micromonas micros by CLSI agar dilution method in presence of clavulanate
Hoylesella oralis = assay: Antimicrobial activity in Prevotella oralis group by CLSI agar dilution method in presence of clavulanate
Finegoldia magna = assay: Antimicrobial activity in Finegoldia magna by CLSI agar dilution method in presence of clavulanate
Clostridium perfringens = assay: Antimicrobial activity in Clostridium perfringens by CLSI agar dilution method in presence of clavulanate
Fusobacterium varium = assay: Antimicrobial activity in Fusobacterium varium by CLSI agar dilution method in presence of clavulanate
[1] = tested on: Peptostreptococcus anaerobius; assay: Antimicrobial activity in Peptostreptococcus anaerobius by CLSI agar dilution method in presence of clavulanate
Clostridioides difficile = assay: Antimicrobial activity in Clostridium difficile by CLSI agar dilution method in presence of clavulanate
[2] = tested on: Paeniclostridium sordellii; assay: Antimicrobial activity in Clostridium sordellii by CLSI agar dilution method in presence of clavulanate; conditions: Paraclostridium sordellii
Anaerococcus prevotii = assay: Antimicrobial activity in Anaerococcus prevotii by CLSI agar dilution method in presence of clavulanate
Clostridium cadaveris = assay: Antimicrobial activity in Clostridium cadaveris by CLSI agar dilution method in presence of clavulanate
Prevotella buccae = assay: Antimicrobial activity in Prevotella buccae by CLSI agar dilution method in presence of clavulanate; conditions: Segatella buccae
Prevotella bivia = assay: Antimicrobial activity in Prevotella bivia by CLSI agar dilution method in presence of clavulanate
[3] = tested on: Bacteroides thetaiotaomicron; assay: Antimicrobial activity in Bacteroides thetaiotaomicron by CLSI agar dilution method in presence of clavulanate
Actinomyces = assay: Antimicrobial activity in Actinomyces by CLSI agar dilution method in presence of clavulanate
Clostridium sp. = assay: Antimicrobial activity in Clostridium sp. by CLSI agar dilution method in presence of clavulanate
[4] = tested on: Parabacteroides distasonis; assay: Antimicrobial activity in Bacteroides distasonis by CLSI agar dilution method in presence of clavulanate
Bacteroides stercoris = assay: Antimicrobial activity in Bacteroides stercoris by CLSI agar dilution method in presence of clavulanate
Eggerthella lenta = assay: Antimicrobial activity in Eggerthella lenta by CLSI agar dilution method in presence of clavulanate
Thomasclavelia ramosa = assay: Antimicrobial activity in Clostridium ramosum by CLSI agar dilution method in presence of clavulanate
Bifidobacterium = assay: Antimicrobial activity in Bifidobacterium by CLSI agar dilution method in presence of clavulanate
Clostridium tertium = assay: Antimicrobial activity in Clostridium tertium by CLSI agar dilution method in presence of clavulanate
Prevotella nigrescens = assay: Antimicrobial activity in Prevotella nigrescens by CLSI agar dilution method in presence of clavulanate
[5] = tested on: Paraclostridium bifermentans; assay: Antimicrobial activity in Clostridium bifermentans by CLSI agar dilution method in presence of clavulanate
Tissierella praeacuta = assay: Antimicrobial activity in Clostridium hastiforme by CLSI agar dilution method in presence of clavulanate
[6] = tested on: Prevotella melaninogenica; assay: Antimicrobial activity in Prevotella melaninogenica by CLSI agar dilution method in presence of clavulanate
Prevotella sp. = assay: Antimicrobial activity in Prevotella sp.by CLSI agar dilution method in presence of clavulanate
[7] = tested on: Fusobacterium necrophorum; assay: Antimicrobial activity in Fusobacterium necrophorum by CLSI agar dilution method in presence of clavulanate
Bacteroides fragilis = assay: Antimicrobial activity in Bacteroides fragilis by CLSI agar dilution method in presence of clavulanate
Phocaeicola vulgatus = assay: Antimicrobial activity in Bacteroides vulgatus by CLSI agar dilution method in presence of clavulanate
Prevotella disiens = assay: Antimicrobial activity in Prevotella disiens by CLSI agar dilution method in presence of clavulanate
Clostridium butyricum = assay: Antimicrobial activity in Clostridium butyricum by CLSI agar dilution method in presence of clavulanate
Hoylesella loescheii = assay: Antimicrobial activity in Prevotella loescheii by CLSI agar dilution method in presence of clavulanate
[Clostridium] innocuum = Antimicrobial activity in Clostridium innocuum by CLSI agar dilution method in presence of clavulanate
[8] = tested on: Enterocloster clostridioformis; assay: Antimicrobial activity in Clostridium clostridioforme by CLSI agar dilution method in presence of clavulanate
Prevotella bergensis = assay: Antimicrobial activity in Prevotella bergensis by CLSI agar dilution method in presence of clavulanate; conditions: Hallella bergensis
Cutibacterium acnes = assay: Antimicrobial activity in Propionibacterium acnes by CLSI agar dilution method in presence of clavulanate
Bacteroides ovatus = assay: Antimicrobial activity in Bacteroides ovatus by CLSI agar dilution method in presence of clavulanate
Prevotella denticola = assay: Antimicrobial activity in Prevotella denticola by CLSI agar dilution method in presence of clavulanate
Bacteroides uniformis = assay: Antimicrobial activity in Bacteroides uniformis by CLSI agar dilution method in presence of clavulanate
[9] = tested on: Peptoniphilus asaccharolyticus; assay: Antimicrobial activity in Peptoniphilus asaccharolyticus by CLSI agar dilution method in presence of clavulanate
Fusobacterium mortiferum = assay: Antimicrobial activity in Fusobacterium mortiferum by CLSI agar dilution method in presence of clavulanate
Prevotella baroniae = assay: Antimicrobial activity in Prevotella baroniae by CLSI agar dilution method in presence of clavulanate; conditions: Segatella baroniae
Lactobacillus = assay: Antimicrobial activity in Lactobacillus by CLSI agar dilution method in presence of clavulanate
Prevotella salivae = assay: Antimicrobial activity in Prevotella salivae by CLSI agar dilution method in presence of clavulanate; conditions: Segatella salivae
Anaerococcus tetradius = assay: Antimicrobial activity in Anaerococcus tetradius by CLSI agar dilution method in presence of clavulanate
Fusobacterium nucleatum = assay: Antimicrobial activity in Fusobacterium nucleatum by CLSI agar dilution method in presence of clavulanate
[10] = tested on: Porphyromonas asaccharolytica; assay: Antimicrobial activity in Porphyromonas asaccharolytica by CLSI agar dilution method in presence of clavulanate
Prevotella corporis = assay: Antimicrobial activity in Prevotella corporis by CLSI agar dilution method in presence of clavulanate
Porphyromonas gingivalis = assay: Antimicrobial activity in Porphyromonas gingivalis by CLSI agar dilution method in presence of clavulanate
Prevotella intermedia = assay: Antimicrobial activity in Prevotella intermedia by CLSI agar dilution method in presence of clavulanate
Prevotella veroralis = assay: Antimicrobial activity in Prevotella veroralis by CLSI agar dilution method in presence of clavulanate

CC1(C)S[C@@H]2[C@H](NC(=O)[C@H](N)c3ccc(O)cc3)C(=O)N2[C@H]1C(=O)O [AMOXICILLIN] showed an MIC (Parvimonas micra) of no more than 0.125 mg/L, an MIC50 (Parvimonas micra) of no more than 0.125 mg/L and an MIC90 (Parvimonas micra) of 0.5 mg/L. It also gave an MIC (Hoylesella oralis) of no more than 0.125 mg/L, an MIC50 (Finegoldia magna) of 0.25 mg/L and an MIC90 (Finegoldia magna) of 0.25 mg/L. It also gave an MIC (Clostridium perfringens) of no more than 0.125 mg/L, an MIC50 (Clostridium perfringens) of no more than 0.125 mg/L and an MIC90 (Clostridium perfringens) of no more than 0.125 mg/L. The MIC50 (Fusobacterium varium) was 2 mg/L, the MIC90 (Fusobacterium varium) was 2 mg/L and the MIC50 [1] was 0.25 mg/L. The MIC90 [1] was 32 mg/L, the MIC50 (Clostridioides difficile) was 1 mg/L and the MIC90 (Clostridioides difficile) was 2 mg/L. It also gave an MIC [2] of no more than 0.125 mg/L, an MIC (Anaerococcus prevotii) of no more than 0.125 mg/L and an MIC (Clostridium cadaveris) of no more than 0.125 mg/L. For the same compound, the MIC (Prevotella buccae) was no more than 0.125 mg/L, the MIC50 (Prevotella buccae) was no more than 0.125 mg/L and the MIC90 (Prevotella buccae) was 1 mg/L. The MIC50 (Prevotella bivia) was 0.5 mg/L, the MIC90 (Prevotella bivia) was 4 mg/L and the MIC50 [3] was 1 mg/L. It also gave an MIC90 [3] of 4 mg/L, an MIC (Actinomyces) of no more than 0.125 mg/L and an MIC50 (Actinomyces) of 0.25 mg/L. The MIC50 (Clostridium sp.) was 0.5 mg/L, the MIC90 (Clostridium sp.) was 0.5 mg/L and the MIC50 [4] was 4 mg/L. The MIC90 [4] was 16 mg/L, the MIC (Bacteroides stercoris) was 0.5 mg/L and the MIC50 (Bacteroides stercoris) was 1 mg/L. It also gave an MIC50 (Eggerthella lenta) of 1 mg/L, an MIC90 (Eggerthella lenta) of 1 mg/L and an MIC (Thomasclavelia ramosa) of no more than 0.125 mg/L. For the same compound, the MIC (Bifidobacterium) was no more than 0.125 mg/L, the MIC50 (Bifidobacterium) was no more than 0.125 mg/L and the MIC90 (Bifidobacterium) was 0.25 mg/L. The MIC (Clostridium tertium) was 0.5 mg/L, the MIC50 (Clostridium tertium) was 0.5 mg/L and the MIC (Prevotella nigrescens) was no more than 0.125 mg/L. The MIC50 (Prevotella nigrescens) was no more than 0.125 mg/L, the MIC90 (Prevotella nigrescens) was 0.5 mg/L and the MIC [5] was 0.25 mg/L. It also gave an MIC (Tissierella praeacuta) of 1 mg/L, an MIC50 [6] of 0.25 mg/L and an MIC90 [6] of 2 mg/L. It also gave an MIC (Prevotella sp.) of no more than 0.125 mg/L, an MIC [7] of no more than 0.125 mg/L and an MIC50 [7] of no more than 0.125 mg/L. It also gave an MIC50 (Bacteroides fragilis) of 0.5 mg/L, an MIC90 (Bacteroides fragilis) of 2 mg/L and an MIC50 (Phocaeicola vulgatus) of 1 mg/L. For the same compound, the MIC90 (Phocaeicola vulgatus) was 8 mg/L, the MIC (Prevotella disiens) was no more than 0.125 mg/L and the MIC50 (Prevotella disiens) was 0.25 mg/L. The MIC (Clostridium butyricum) was 1 mg/L, the MIC (Hoylesella loescheii) was 0.25 mg/L and the MIC ([Clostridium] innocuum) was no more than 0.125 mg/L. For the same compound, the MIC [8] was 1 mg/L, the MIC (Prevotella bergensis) was 0.5 mg/L and the MIC (Cutibacterium acnes) was no more than 0.125 mg/L. The MIC50 (Cutibacterium acnes) was no more than 0.125 mg/L, the MIC90 (Cutibacterium acnes) was 0.25 mg/L and the MIC (Bacteroides ovatus) was 0.5 mg/L. It also gave an MIC50 (Bacteroides ovatus) of 0.5 mg/L, an MIC90 (Bacteroides ovatus) of 2 mg/L and an MIC50 (Prevotella denticola) of 0.25 mg/L. It also gave an MIC90 (Prevotella denticola) of 2 mg/L, an MIC (Bacteroides uniformis) of 0.5 mg/L and an MIC50 (Bacteroides uniformis) of 0.5 mg/L. For the same compound, the MIC [9] was no more than 0.125 mg/L, the MIC50 [9] was no more than 0.125 mg/L and the MIC50 (Fusobacterium mortiferum) was 1 mg/L. It also gave an MIC90 (Fusobacterium mortiferum) of 32 mg/L, an MIC (Prevotella baroniae) of no more than 0.125 mg/L and an MIC50 (Lactobacillus) of 1 mg/L. For the same compound, the MIC90 (Lactobacillus) was 1 mg/L, the MIC (Prevotella salivae) was no more than 0.125 mg/L and the MIC (Anaerococcus tetradius) was no more than 0.125 mg/L. For the same compound, the MIC50 (Anaerococcus tetradius) was no more than 0.125 mg/L, the MIC90 (Anaerococcus tetradius) was no more than 0.125 mg/L and the MIC (Fusobacterium nucleatum) was no more than 0.125 mg/L. For the same compound, the MIC50 (Fusobacterium nucleatum) was no more than 0.125 mg/L, the MIC90 (Fusobacterium nucleatum) was no more than 0.125 mg/L and the MIC [10] was no more than 0.125 mg/L. It also gave an MIC (Prevotella corporis) of no more than 0.125 mg/L, an MIC50 (Prevotella corporis) of no more than 0.125 mg/L and an MIC (Porphyromonas gingivalis) of no more than 0.125 mg/L. It also gave an MIC (Prevotella intermedia) of no more than 0.125 mg/L, an MIC50 (Prevotella intermedia) of no more than 0.125 mg/L and an MIC90 (Prevotella intermedia) of 0.5 mg/L. For the same compound, the MIC (Prevotella veroralis) was no more than 0.125 mg/L.
